From PMC9501172, “Gallic Acid Alkyl Esters: Trypanocidal and Leishmanicidal Activity, and Target Identification via Modeling Studies” (Molecules, 2022)
Converted amounts (≈) assume the structure as drawn. Where two headings read alike, the source gives them in different places.

Tests used:
[1] = test system: promastigotes of L. major; assay: Leishmanicidal activity, resazurin viability assay; format: cell-based, Leishmania major; details: for GI50: values in brackets; for inhibition at 100 µM: read-out: Growth Inhibition (% at 100 μM); for leishmanicidal activity: in words
Experimental: (§1) Trypanocidal, leishmanicidal, and cytotoxic activities of gallic acid alkyl esters were determined with bloodstream forms of T. brucei (clone 427-221a), promastigotes of L. major (strain MHOM/IL/81/Friedlin [51]), and human myeloid HL-60 cell, respectively. The viability of cells was evaluated with the vital dye resazurin as previously described with some modifications. Cells were seeded in 96-well plates in a final volume of 200 μL Baltz medium (T. brucei bloodstream forms and HL-60 cells) or Schneider’s insect medium (L. major promastigotes) supplemented with 16.7% and 10% fetal bovine serum, respectively. Test compounds were assayed at tenfold dilutions starting from 100 μM down up to 100 nM in the presence of 0.9% DMSO. Wells containing medium with 0.9% DMSO alone served as controls. The initial cell densities were 1 × 10^4/mL for T. brucei bloodstream forms, 2.5 × 10^5/mL for L. major promastigotes, and 5 × 10^4/mL for HL-60 cells. The cultures were incubated at 37 °C (T. brucei bloodstream forms and HL-60 cells) and 27 °C (L. major promastigotes) in a humidified atmosphere containing 5% CO2. After 24 h of incubation, 20 µL of a 0.5 mM resazurin solution prepared in sterile PBS was added to each well, and the cultures were incubated for another 48 h. Then, the absorbance of each well was read on a BioTek ELx808 microplate reader using a test wavelength of 570 nm and a reference wavelength of 630 nm. The 50% growth inhibition (GI50) value, i.e., the concentration of a compound necessary to reduce the growth rate of cells by 50% compared to the control, was determined by linear interpolation. The minimum inhibitory concentration (MIC) value, i.e., the concentration of a compound at which all cells were killed, was determined microscopically.

[2] = test system: human myeloid HL-60 cells; assay: General cytotoxicity, resazurin viability assay; format: cell-based; details: for cytotoxicity against the human cells: HL-60, in words; for GI50 / MIC: Homo sapiens; for GI50: HL-60, 72 h, resazurin, 24 h + 48 h; for MIC: concentration at which all cells were killed, determined microscopically
Experimental: as §1

[3] = test system: HL-60 / T. brucei; assay: Selectivity: ratio of cytotoxic to trypanocidal activity; format: cell-based, Trypanosoma brucei; details: for GI50 Ratio: GI50(HL-60)/GI50(T. brucei); for MIC Ratio: MIC(HL-60)/MIC(T. brucei)
Experimental: as §1

[4] = test system: T. brucei bloodstream forms; assay: Motility assay with glucose or glycerol as substrate; format: cell-based, Trypanosoma brucei; details: 55 mM glucose, compound 200 μM, PBS
Experimental: A culture of bloodstream forms of T. brucei was divided into two equal portions (9 mL) and collected by centrifugation. The cell pellets were resuspended in 1 mL PBS containing 55 mM glucose or 55 mM glycerol. After subsequent centrifugation, the cell pellets were resuspended again in PBS/55 mM glucose and PBS/55 mM glycerol, respectively, and the cell density was adjusted to 2 × 10^6/mL. Then, 100 μL of trypanosomes were mixed with 100 μL PBS/55 mM glucose or 100 μL PBS/55 mM glycerol containing gallic acid alkyl esters at a concentration of 400 μM, giving a final concentration of the esters in the assay of 200 μM. The final concentration of DMSO in each test was 0.9%. The motility of the trypanosomes was examined under the microscope.

[5] = test system: bloodstream forms of T. brucei; assay: Trypanocidal activity, resazurin viability assay; format: cell-based, Trypanosoma brucei; details: for GI50 / MIC: Trypanosoma brucei; for MIC: concentration at which all cells were killed, determined microscopically
Experimental: as §1

[6] = test system: Vero cells; assay: Cytotoxicity against Vero cells quoted from the literature; format: cell-based; details: for times Vero cells are less sensitive compared with HL-60 cells: GI50(Vero) vs GI50(HL-60); for selectivity: using the Vero cell cytotoxicity as the basis, relative to trypanocidal activity
[7] = test system: Vero cells; design: method as in PMID 18797755; details: cited from earlier work
[8] = test system: T. brucei; details: cited from earlier work
[9] = test system: murine B-lymphoma WEHI-231 cells; design: method as in PMID 9466819; details: cited from earlier work
[10] = 72 h, bloodstream forms clone 427-221a, resazurin, 24 h + 48 h, read-out: T. brucei GI50
[11] = bloodstream forms clone 427-221a
[12] = T. brucei bloodstream forms, GI50 expressed in μg/mL, read-out: GI50
[13] = trypanocidal activity of related phenolic esters

C[C@@H]1[C@H](O)[C@@H](C)/C=C/C=C/C=C/C=C/C=C/C=C/C=C/[C@H](O[C@@H]2O[C@H](C)[C@@H](O)[C@H](N)[C@@H]2O)C[C@@H]2O[C@](O)(C[C@@H](O)C[C@@H](O)[C@H](O)CC[C@@H](O)C[C@@H](O)CC(=O)O[C@H]1C)C[C@H](O)[C@H]2C(=O)O [Amphotericin B, reference compound]
MIC ([1]; Leishmania major): 0.1 µM (≈ 0.0924 µg/mL) | inhibition at 10 µM ([1]; Leishmania major, at 10 μM, read-out: Growth Inhibition (%)): 100% | GI50 ([1]; Leishmania major): 0.04 µM

COC(=O)c1cc(O)c(O)c(O)c1 [Compound 1, Gallic acid methyl ester]
cytotoxicity against the human cells [2]: no cytotoxicity | GI50 [2]: > 100 µM | MIC [2]: > 100 µM | MIC ([1]; Leishmania major): > 100 µM | inhibition at 100 µM ([1]; Leishmania major): 2% | GI50 Ratio [3]: >4.1 | MIC Ratio [3]: >1 | Motility after 5 min [4]: + + + | GI50 [5, 10]: 24.5 ± 4.5 µM | MIC [5, 11]: 100 µM (≈ 18.4 µg/mL)

CCOC(=O)c1cc(O)c(O)c(O)c1 [Compound 2, Gallic acid ethyl ester]
cytotoxicity against the human cells [2]: no cytotoxicity | GI50 [2]: > 100 µM | MIC [2]: > 100 µM | MIC ([1]; Leishmania major): > 100 µM | inhibition at 100 µM ([1]; Leishmania major): 0% | leishmanicidal activity [1]: no leishmanicidal activity | GI50 Ratio [3]: >3.6 | MIC Ratio [3]: >1 | Motility after 5 min [4]: + + + | GI50 [5, 10]: 27.9 ± 2.4 µM | MIC [5, 11]: 100 µM (≈ 19.8 µg/mL)

CC(C)OC(=O)c1cc(O)c(O)c(O)c1 [Compound 3, Gallic acid isopropyl ester]
GI50 [2]: 87.9 ± 8.2 µM | MIC [2]: > 100 µM | MIC ([1]; Leishmania major): > 100 µM | inhibition at 100 µM ([1]; Leishmania major): 34% | GI50 Ratio [3]: 10.5 | MIC Ratio [3]: >1 | Motility after 5 min [4]: + + + | GI50 [5, 10]: 8.4 ± 2.2 µM | MIC [5, 11]: 100 µM (≈ 21.2 µg/mL)

CCCOC(=O)c1cc(O)c(O)c(O)c1 [Compound 4, Gallic acid propyl ester]
GI50 [2]: 82 ± 8.2 µM | MIC [2]: > 100 µM | times Vero cells are less sensitive compared with HL-60 cells [6]: 8.7 times | selectivity [6]: > 100 | MIC ([1]; Leishmania major): 100 µM (≈ 21.2 µg/mL) | inhibition at 100 µM ([1]; Leishmania major): 61% | GI50 ([1]; Leishmania major): 50.4 µM | MIC Ratio [3]: >10 | Motility after 5 min [4]: + + + | times less active compared with suramin ([5]; T. brucei bloodstream forms): 10–100 times | GI50 [5, 10]: ~3 µM | GI50 [5, 12]: 0.63 to 0.78 µg/mL | MIC [5, 11]: 10 µM (≈ 2.12 µg/mL) | GI50 [7]: 713 µM

CCCCOC(=O)c1cc(O)c(O)c(O)c1 [Compound 5, Gallic acid butyl ester]
GI50 [2]: 74.8 ± 4.5 µM | MIC [2]: > 100 µM | times Vero cells are less sensitive compared with HL-60 cells [6]: 4.8 times | selectivity [6]: > 100 | MIC ([1]; Leishmania major): 100 µM (≈ 22.6 µg/mL) | inhibition at 100 µM ([1]; Leishmania major): 58% | GI50 ([1]; Leishmania major): 62.4 µM | MIC Ratio [3]: >10 | Motility after 5 min [4]: + + + | times less active compared with suramin ([5]; T. brucei bloodstream forms): 10–100 times | GI50 [5, 10]: ~3 µM | GI50 [5, 12]: 0.63 to 0.78 µg/mL | MIC [5, 11]: 10 µM (≈ 2.26 µg/mL) | GI50 [7]: 361 µM

CC(C)CCOC(=O)c1cc(O)c(O)c(O)c1 [Compound 6, Gallic acid isopentyl ester]
GI50 [2]: 90.4 ± 21.6 µM | MIC [2]: > 100 µM | MIC ([1]; Leishmania major): 100 µM (≈ 24 µg/mL) | inhibition at 100 µM ([1]; Leishmania major): 45% | MIC Ratio [3]: >10 | Motility after 5 min [4]: + + + | times less active compared with suramin ([5]; T. brucei bloodstream forms): 10–100 times | GI50 [5, 10]: ~3 µM | GI50 [5, 12]: 0.63 to 0.78 µg/mL | MIC [5, 11]: 10 µM (≈ 2.4 µg/mL)

CCCCCOC(=O)c1cc(O)c(O)c(O)c1 [Compound 7, Gallic acid pentyl ester]
cytotoxicity against the human cells [2]: no cytotoxicity | GI50 [2]: > 100 µM | MIC [2]: > 100 µM | melting point: 94 to 96 °C | MIC ([1]; Leishmania major): > 100 µM | inhibition at 100 µM ([1]; Leishmania major): 0% | leishmanicidal activity [1]: no leishmanicidal activity | GI50 Ratio [3]: >3.0 | MIC Ratio [3]: >1 | Motility after 5 min [4]: + + + | GI50 [5, 10]: 32.8 ± 0.9 µM | MIC [5, 11]: 100 µM (≈ 24 µg/mL)

COCCOC(=O)c1cc(O)c(O)c(O)c1 [Compound 8, Gallic acid 2-methoxyethyl ester]
GI50 [2]: 99.2 ± 9.4 µM | MIC [2]: > 100 µM | melting point: 152 to 153 °C | MIC ([1]; Leishmania major): 100 µM (≈ 22.8 µg/mL) | inhibition at 100 µM ([1]; Leishmania major): 47% | GI50 Ratio [3]: 17.7 | MIC Ratio [3]: >1 | Motility after 5 min [4]: + + + | GI50 [5, 10]: 5.6 ± 1.3 µM | MIC [5, 11]: 100 µM (≈ 22.8 µg/mL)

Cc1ccc(C(=O)Nc2ccc(S(=O)(=O)O)c3cc(S(=O)(=O)O)cc(S(=O)(=O)O)c23)cc1NC(=O)c1cccc(NC(=O)Nc2cccc(C(=O)Nc3cc(C(=O)Nc4ccc(S(=O)(=O)O)c5cc(S(=O)(=O)O)cc(S(=O)(=O)O)c45)ccc3C)c2)c1 [Suramin, reference compound]
GI50 [2]: > 100 µM | MIC [2]: > 100 µM | times higher GI50 ratio than gallic acid alkyl esters 4, 5, and 6 [3]: 100 times | times higher MIC ratio than gallic acid alkyl esters 4, 5, and 6 [3]: 10 times | GI50 Ratio [3]: >2500 | MIC Ratio [3]: >100 | GI50 [5, 10]: 0.04 µM | MIC [5, 11]: 1 µM (≈ 1.3 µg/mL)

CC(C)CCOC(=O)C=Cc1ccc(O)c(O)c1 [caffeic acid isopentyl ester, 3,4-dihydroxycinnamic (caffeic) acid isopentyl ester]
GI50 [8, 13]: 1.24 µM

O=C(/C=C/c1ccc(O)c(O)c1)OCCc1ccccc1 [caffeic acid phenethyl ester]
GI50 ([8]; trypanocidal activity): 0.046 µM

CCCCCCCCCCCCOC(=O)c1cc(O)c(O)c(O)c1 [dodecyl gallate]
GI50 [9]: 1 µM

CCOC(=O)C=Cc1ccc(O)c(OC)c1 [ferulic acid ethyl ester, 3-methoxy-4-hydroxycinnamic (ferulic) acid ethyl ester]
GI50 [8, 13]: 110 µM

O=C(O)c1cc(O)c(O)c(O)c1 [gallic acid, 3,4,5-trihydroxybenzoic acid]
GI50 ([8]; trypanocidal activity of the reactant): 14.2 µM

CCCCCCCCOC(=O)c1cc(O)c(O)c(O)c1 [octyl gallate]
GI50 [9]: 1.5 µM
